{"source": "patent US20140161720A1", "about": "“TREATMENT OF ANGIOGENIC- OR VASCULAR-ASSOCIATED DISEASES” (THE GENERAL HOSPITAL CORPORATION, priority 2011, published 2014)", "key": {"[1]": {"molecular_target": "T1, Rac1 (Homo sapiens, UniProt P63000)", "T1 construct": "endogenous in cells; host or cells: HUVEC", "assay": "Rac1 activation pull-down assay (PAK-PBD) in HUVECs", "type": "cell-based", "conditions": "various concentrations 30 minutes, VEGF stimulated", "experimental": "Rac1 and cdc42 activities were measured with a Rac1 (BK035) activation assay biochem kit (Cytoskeleton) according to the manufacturer protocol. In brief, human umbilical vein endothelial cells (HUVECs) were bovine brain extract-starved for 12 hours in 1% FBS-EGM (Lonza) and pretreated with various concentrations of DAL for 30 minutes at 37° C. The HUVECs were then stimulated with VEGF at […] for 15 minutes at 37° C. After stimulation, the cells were immediately incubated on ice, washed twice with PBS, and lysed with lysis buffer. The lysates were pre-cleared and added with 15 μl of PAK-PBD beads for pull-down of activated Rac1 or cdc42. After rocking at 4° C. for 1 hour, the beads were washed once and boiled at 100° C. for 2 minutes. The protein lysates were then resolved in a 8-16% gradient gel (Invitrogen) and transferred to a PVDF membrane. Primary antibodies (anti-Rac1, 1:1000, cytoskeleton or anti-cdc42, 1:1000, cell signaling) were added to bind to the protein overnight at 4° C., followed by incubation with HRP-conjugated secondary antibodies. Protein activity was measured by the standard ECL method (Amersham).\nWithout wishing to be bound by theory, DAL brings about its antivascular effects by destabilizing cell adhesion through the actin cytoskeleton. […] Therefore, potential targets of DAL in signaling pathways involved in actin remodeling were evaluated. […]"}, "[2]": {"molecular_target": "PKC alpha (Homo sapiens, UniProt P17252)", "assay": "Kinase inhibition screening", "type": "biochemical", "conditions": "10-dose, starting at 100 μM, 1 μM ATP", "experimental": "(§1) To determine kinase activity of DAL, various kinases (AKT1, AKT2, AKT3, PKA, PKC alpha, PKC delta, PAK1, EPHB2, EPHB4, p38 alpha, PI3K-alpha, PI3K-beta, PI3K-gamma, PI3K-delta) were screened in a 10-dose IC50 mode with threefold serial dilutions starting at 100 μM. Staurosporine was used as a control starting at 10 μM and the reactions were carried out at 1 μM ATP.\n(§2) Without wishing to be bound by theory, DAL brings about its antivascular effects by destabilizing cell adhesion through the actin cytoskeleton. It was next sought to identify which specific adhesion pathway it targets. Mechanical attachment at cell-cell adherens and tight junctions is regulated by dynamic changes in the actin cytoskeleton. Adherens junctions are composed of E-cadherin/β-catenin complexes and are connected to the actin cytoskeleton via sa-catenin (25-26), while tight junctions consist of transmembrane claudins and occludin and are associated with the actin cytoskeleton via ZO proteins (27-28). Therefore, potential targets of DAL in signaling pathways involved in actin remodeling were evaluated. […] Then, it was sought to determine whether Rho-GTPase family members are targets for DAL due to the disruption of cell adhesion and actin network remodeling along with inhibited motility. Rho-GTPases (e.g., Rac1) plays an important role in actin cytoskeletal organization and is involved in the coordination of cell adhesion (29). Furthermore, Rac1 is responsible for stabilizing endothelial cell junctions by opposing actin remodeling by Rho (30). In order to migrate, cancer cells employ dynamic remodeling of the actin cytoskeleton, form protrusive structures and generate forces necessary to produce cell translocation in the process regulated by Rho-GTPase Rac1. To assess whether DAL can modulate Rac1, RhoA, and Cdc42 activities, affinity purification assays were employed to monitor RhoA and Cdc42/Rac1 activity. The Rho-Binding Domain (RBD) of the Rho effector protein rhotekin and the p21 Binding Domain (PBD) of the Cdc42/Rac effector protein p21 activated kinase 1 (PAK) were applied to pull down active forms of each protein."}, "[3]": {"molecular_target": "PI3K-delta (Homo sapiens, UniProt O00329)", "sequence (O00329 whole entry, species assumed)": "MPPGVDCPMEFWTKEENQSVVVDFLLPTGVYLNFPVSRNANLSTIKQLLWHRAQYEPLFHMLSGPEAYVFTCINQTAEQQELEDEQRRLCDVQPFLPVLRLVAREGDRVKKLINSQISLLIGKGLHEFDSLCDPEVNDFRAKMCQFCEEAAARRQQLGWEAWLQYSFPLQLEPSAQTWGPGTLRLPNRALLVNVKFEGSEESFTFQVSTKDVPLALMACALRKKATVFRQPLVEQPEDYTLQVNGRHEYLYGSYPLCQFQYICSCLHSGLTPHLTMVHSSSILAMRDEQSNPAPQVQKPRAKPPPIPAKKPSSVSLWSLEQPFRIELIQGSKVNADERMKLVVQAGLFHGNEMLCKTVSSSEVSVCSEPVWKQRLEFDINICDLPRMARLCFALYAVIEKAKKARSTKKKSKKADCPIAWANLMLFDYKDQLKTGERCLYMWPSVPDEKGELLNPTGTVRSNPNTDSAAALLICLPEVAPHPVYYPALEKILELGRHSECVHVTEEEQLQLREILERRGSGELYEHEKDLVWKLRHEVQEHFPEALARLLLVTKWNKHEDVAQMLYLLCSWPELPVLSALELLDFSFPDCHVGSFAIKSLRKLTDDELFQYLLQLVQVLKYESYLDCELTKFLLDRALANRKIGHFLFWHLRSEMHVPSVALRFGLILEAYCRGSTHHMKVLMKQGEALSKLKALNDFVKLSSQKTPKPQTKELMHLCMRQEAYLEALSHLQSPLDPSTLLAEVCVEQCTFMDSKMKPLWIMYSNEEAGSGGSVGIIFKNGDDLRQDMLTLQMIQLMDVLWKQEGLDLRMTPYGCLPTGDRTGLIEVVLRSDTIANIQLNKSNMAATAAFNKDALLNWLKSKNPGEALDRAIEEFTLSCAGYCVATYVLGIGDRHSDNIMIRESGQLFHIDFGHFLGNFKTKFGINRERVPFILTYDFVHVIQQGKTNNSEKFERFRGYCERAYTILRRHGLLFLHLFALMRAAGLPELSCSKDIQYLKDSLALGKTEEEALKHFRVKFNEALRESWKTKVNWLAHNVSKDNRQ", "sequence (P27986 whole entry partner, species assumed)": "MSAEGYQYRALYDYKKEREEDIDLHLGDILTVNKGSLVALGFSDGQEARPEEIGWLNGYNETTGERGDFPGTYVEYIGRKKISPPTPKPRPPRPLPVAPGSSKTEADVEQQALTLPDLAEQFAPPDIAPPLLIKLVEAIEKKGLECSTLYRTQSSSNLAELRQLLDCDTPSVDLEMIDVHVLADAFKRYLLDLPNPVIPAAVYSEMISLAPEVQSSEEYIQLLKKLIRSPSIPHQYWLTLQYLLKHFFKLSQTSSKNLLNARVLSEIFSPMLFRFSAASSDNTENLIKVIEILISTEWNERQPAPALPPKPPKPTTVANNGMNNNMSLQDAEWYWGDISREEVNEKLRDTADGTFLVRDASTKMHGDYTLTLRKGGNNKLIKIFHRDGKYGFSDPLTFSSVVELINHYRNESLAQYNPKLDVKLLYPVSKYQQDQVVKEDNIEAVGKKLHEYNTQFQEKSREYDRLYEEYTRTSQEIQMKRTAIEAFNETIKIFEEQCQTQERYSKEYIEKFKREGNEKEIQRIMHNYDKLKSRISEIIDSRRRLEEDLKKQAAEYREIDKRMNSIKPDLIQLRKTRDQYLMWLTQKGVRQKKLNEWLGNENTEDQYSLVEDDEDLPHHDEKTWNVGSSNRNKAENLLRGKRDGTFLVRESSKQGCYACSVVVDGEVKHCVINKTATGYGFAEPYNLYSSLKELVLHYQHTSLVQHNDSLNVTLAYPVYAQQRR", "assay": "Kinase inhibition screening", "type": "biochemical", "conditions": "10-dose, starting at 100 μM, 1 μM ATP", "experimental": "as §1, §2"}, "[4]": {"molecular_target": "PI3K-gamma (Homo sapiens, UniProt P48736)", "assay": "Kinase inhibition screening", "type": "biochemical", "conditions": "10-dose, starting at 100 μM, 1 μM ATP", "experimental": "as §1, §2"}, "[5]": {"molecular_target": "EPHB4 (Homo sapiens, UniProt P54760)", "sequence (P54760 16-987, species assumed)": "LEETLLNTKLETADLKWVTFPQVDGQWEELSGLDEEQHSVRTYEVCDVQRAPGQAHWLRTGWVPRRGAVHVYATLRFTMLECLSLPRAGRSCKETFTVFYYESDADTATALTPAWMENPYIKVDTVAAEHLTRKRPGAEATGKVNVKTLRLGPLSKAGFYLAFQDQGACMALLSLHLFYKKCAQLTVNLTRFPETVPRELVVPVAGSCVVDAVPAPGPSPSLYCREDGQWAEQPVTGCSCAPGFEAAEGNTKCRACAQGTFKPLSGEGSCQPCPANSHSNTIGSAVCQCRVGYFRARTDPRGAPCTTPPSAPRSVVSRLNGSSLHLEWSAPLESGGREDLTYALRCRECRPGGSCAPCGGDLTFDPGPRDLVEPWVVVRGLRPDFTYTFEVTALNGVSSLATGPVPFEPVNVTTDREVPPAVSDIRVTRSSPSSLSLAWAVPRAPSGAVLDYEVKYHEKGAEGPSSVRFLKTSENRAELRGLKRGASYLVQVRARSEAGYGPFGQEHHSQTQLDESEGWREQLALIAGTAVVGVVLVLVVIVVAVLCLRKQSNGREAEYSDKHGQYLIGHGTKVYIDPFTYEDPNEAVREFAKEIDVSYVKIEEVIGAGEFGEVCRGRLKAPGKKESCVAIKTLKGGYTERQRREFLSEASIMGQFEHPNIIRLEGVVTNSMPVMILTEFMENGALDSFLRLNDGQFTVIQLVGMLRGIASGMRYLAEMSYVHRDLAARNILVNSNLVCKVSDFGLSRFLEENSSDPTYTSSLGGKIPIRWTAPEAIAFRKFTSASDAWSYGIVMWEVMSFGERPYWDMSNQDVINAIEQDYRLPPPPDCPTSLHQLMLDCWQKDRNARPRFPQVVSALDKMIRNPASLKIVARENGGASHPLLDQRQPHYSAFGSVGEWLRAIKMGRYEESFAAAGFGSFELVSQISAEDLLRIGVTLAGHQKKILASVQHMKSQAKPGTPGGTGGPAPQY", "assay": "Kinase inhibition screening", "type": "biochemical", "conditions": "10-dose, starting at 100 μM, 1 μM ATP", "experimental": "as §1, §2"}, "[6]": {"molecular_target": "EPHB2 (Homo sapiens, UniProt P29323)", "assay": "Kinase inhibition screening", "type": "biochemical", "conditions": "10-dose, starting at 100 μM, 1 μM ATP", "experimental": "as §1, §2"}, "[7]": {"molecular_target": "AKT2 (Homo sapiens, UniProt P31751)", "sequence (P31751 whole entry, species assumed)": "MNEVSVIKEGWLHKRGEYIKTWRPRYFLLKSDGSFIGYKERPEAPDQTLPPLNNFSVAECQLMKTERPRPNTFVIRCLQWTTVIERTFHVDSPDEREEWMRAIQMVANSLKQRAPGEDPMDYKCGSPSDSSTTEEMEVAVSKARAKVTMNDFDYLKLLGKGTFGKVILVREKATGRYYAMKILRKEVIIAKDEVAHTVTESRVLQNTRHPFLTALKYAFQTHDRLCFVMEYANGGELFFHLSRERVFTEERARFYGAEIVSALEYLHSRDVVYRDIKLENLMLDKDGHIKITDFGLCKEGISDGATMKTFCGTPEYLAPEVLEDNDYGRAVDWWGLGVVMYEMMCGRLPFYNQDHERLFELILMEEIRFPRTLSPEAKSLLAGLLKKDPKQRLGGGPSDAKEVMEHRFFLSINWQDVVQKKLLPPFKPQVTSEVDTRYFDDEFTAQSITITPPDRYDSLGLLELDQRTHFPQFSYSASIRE", "assay": "Kinase inhibition screening", "type": "biochemical", "conditions": "10-dose, starting at 100 μM, 1 μM ATP", "experimental": "as §1, §2"}, "[8]": {"molecular_target": "AKT3 (Homo sapiens, UniProt Q9Y243)", "sequence (Q9Y243 whole entry, species assumed)": "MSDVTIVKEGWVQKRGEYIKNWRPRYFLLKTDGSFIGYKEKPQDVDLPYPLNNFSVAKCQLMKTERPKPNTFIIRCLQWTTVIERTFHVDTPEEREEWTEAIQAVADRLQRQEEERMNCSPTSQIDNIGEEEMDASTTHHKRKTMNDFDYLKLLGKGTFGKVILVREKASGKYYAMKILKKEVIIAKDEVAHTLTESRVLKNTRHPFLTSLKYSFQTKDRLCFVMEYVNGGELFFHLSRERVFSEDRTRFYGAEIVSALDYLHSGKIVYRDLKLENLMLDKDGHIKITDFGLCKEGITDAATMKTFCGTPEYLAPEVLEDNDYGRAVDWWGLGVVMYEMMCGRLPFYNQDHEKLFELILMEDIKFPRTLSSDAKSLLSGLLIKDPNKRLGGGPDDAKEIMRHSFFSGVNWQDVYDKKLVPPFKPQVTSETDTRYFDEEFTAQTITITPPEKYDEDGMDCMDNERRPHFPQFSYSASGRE", "assay": "Kinase inhibition screening", "type": "biochemical", "conditions": "10-dose, starting at 100 μM, 1 μM ATP", "experimental": "as §1, §2"}, "[9]": {"molecular_target": "PKA (Homo sapiens, UniProt P17612)", "assay": "Kinase inhibition screening", "type": "biochemical", "conditions": "10-dose, starting at 100 μM, 1 μM ATP", "experimental": "as §1, §2"}, "[10]": {"molecular_target": "PI3K-beta (Homo sapiens, UniProt P42338)", "assay": "Kinase inhibition screening", "type": "biochemical", "conditions": "10-dose, starting at 100 μM, 1 μM ATP", "experimental": "as §1, §2"}, "[11]": {"molecular_target": "PAK1 (Homo sapiens, UniProt Q13153)", "assay": "Kinase inhibition screening", "type": "biochemical", "conditions": "10-dose, starting at 100 μM, 1 μM ATP", "experimental": "as §1, §2"}, "[12]": {"molecular_target": "PI3K-alpha (Homo sapiens, UniProt P42336)", "assay": "Kinase inhibition screening", "type": "biochemical", "conditions": "10-dose, starting at 100 μM, 1 μM ATP", "experimental": "as §1, §2"}, "[13]": {"molecular_target": "PKC delta (Homo sapiens, UniProt Q05655)", "sequence (Q05655 whole entry)": "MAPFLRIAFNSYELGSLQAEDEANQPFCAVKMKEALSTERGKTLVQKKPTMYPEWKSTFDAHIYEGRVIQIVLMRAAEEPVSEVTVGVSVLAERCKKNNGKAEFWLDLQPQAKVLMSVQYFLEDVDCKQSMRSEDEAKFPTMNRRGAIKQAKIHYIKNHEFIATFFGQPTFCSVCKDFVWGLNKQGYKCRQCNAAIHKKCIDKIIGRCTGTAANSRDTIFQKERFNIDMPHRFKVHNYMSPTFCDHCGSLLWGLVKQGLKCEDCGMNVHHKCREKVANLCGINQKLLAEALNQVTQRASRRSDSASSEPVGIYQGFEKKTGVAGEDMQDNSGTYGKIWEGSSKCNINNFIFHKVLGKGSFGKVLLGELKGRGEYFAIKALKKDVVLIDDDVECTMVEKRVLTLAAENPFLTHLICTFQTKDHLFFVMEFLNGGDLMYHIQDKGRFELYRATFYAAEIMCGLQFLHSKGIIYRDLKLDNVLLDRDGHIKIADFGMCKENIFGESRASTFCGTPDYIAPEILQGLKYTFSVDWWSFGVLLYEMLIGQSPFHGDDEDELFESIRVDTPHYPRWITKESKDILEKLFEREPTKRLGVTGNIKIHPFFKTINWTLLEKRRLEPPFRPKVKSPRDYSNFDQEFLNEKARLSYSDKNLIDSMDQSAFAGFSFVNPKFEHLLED", "assay": "Kinase inhibition screening", "type": "biochemical", "conditions": "10-dose, starting at 100 μM, 1 μM ATP", "experimental": "as §1, §2"}, "[14]": {"molecular_target": "AKT1 (Homo sapiens, UniProt P31749)", "assay": "Kinase inhibition screening", "type": "biochemical", "conditions": "10-dose, starting at 100 μM, 1 μM ATP", "experimental": "as §1, §2"}, "[15]": {"molecular_target": "p38 alpha (Homo sapiens, UniProt Q16539)", "assay": "Kinase inhibition screening", "type": "biochemical", "conditions": "10-dose, starting at 100 μM, 1 μM ATP", "experimental": "as §1, §2"}, "[16]": {"system": "RhoA", "assay": "RhoA activity affinity purification assay (rhotekin RBD)", "type": "cell-based, human", "conditions": "HUVEC cells", "from_the_text": "as §2, with “To assess whether DAL can modulate Rac1, RhoA, and Cdc42 activities, affinity purification assays were employed to monitor RhoA and Cdc42/Rac1 activity. The Rho-Binding Domain (RBD) of the Rho effector protein rhotekin and the p21 Binding Domain (PBD) of the Cdc42/Rac effector protein p21 activated kinase 1 (PAK) were applied to pull down active forms of each protein.” left out"}, "[17]": {"system": "Tg(fli1:EGFP)^y1 zebrafish embryos", "assay": "Vascular development in zebrafish embryos", "type": "in vivo", "experimental": "Zebrafish were raised in accordance with the established protocols (19-20). The age of embryos is indicated by the hours after fertilization and days after fertilization for all experimental data shown herein. For the screening study, zebrafish embryos were incubated with the selected compounds at a concentration of 5-10 μM. Treated embryos were then examined under a 100× PlanNeofluor objective mounted on a Nikon TE-200 epifluorescence microscope. Images of embryos bearing GFP-positive cells were captured with a Zeiss stereomicroscope.\nTo elucidate the potential impact of DAL on the process of vascular network formation, its effects in zebrafish embryos at different stages of development were assessed. To visualize vessel defects, transgenic fish expressing EGFP in endothelial cells (Tg(fli1:EGFP)^y1) were used (19-20). This model expresses EGFP in blood vessel ECs throughout normal development and during fin regeneration (21). The effects of DAL on normal vascular development in zebrafish embryos were first characterized. In control embryos, developing vessels migrated from the lateral plate mesoderm to the midline, where they coalesced into a vascular cord. These endothelial clusters subsequently established the pattern of the dorsal aorta and posterior cardinal vein. Intersomitic vessels sprouted at designated branch sites in control embryos after dorsal aorta formation."}}, "note": "Entries after “also recorded” stand apart in the source; their conditions may differ."}
{"compound": "CC1(C)C=CC2=C(O1)C(=O)c1ccccc1C2=O", "note": "[DAL, dehydro-alpha-lapachone]", "values": [{"measurement": "Rac1 activity", "setting": "[1]", "result": "decreased Rac1 activity in a concentration-dependent manner"}, {"measurement": "effect on kinase PKC alpha", "setting": "[2]", "result": "no significant effects"}, {"measurement": "effect on kinase PI3K-delta", "setting": "[3]", "result": "no significant effects"}, {"measurement": "effect on kinase PI3K-gamma", "setting": "[4]", "result": "no significant effects"}, {"measurement": "effect on kinase EPHB4", "setting": "[5]", "result": "no significant effects"}, {"measurement": "effect on kinase EPHB2", "setting": "[6]", "result": "no significant effects"}, {"measurement": "effect on kinase AKT2", "setting": "[7]", "result": "no significant effects"}, {"measurement": "effect on kinase AKT3", "setting": "[8]", "result": "no significant effects"}, {"measurement": "effect on kinase PKA", "setting": "[9]", "result": "no significant effects"}, {"measurement": "effect on kinase PI3K-beta", "setting": "[10]", "result": "no significant effects"}, {"measurement": "effect on kinase PAK1", "setting": "[11]", "result": "no significant effects"}, {"measurement": "effect on kinase PI3K-alpha", "setting": "[12]", "result": "no significant effects"}, {"measurement": "effect on kinase PKC delta", "setting": "[13]", "result": "no significant effects"}, {"measurement": "effect on kinase AKT1", "setting": "[14]", "result": "no significant effects"}, {"measurement": "effect on kinase p38 alpha", "setting": "[15]", "result": "no significant effects"}, {"measurement": "RhoA activity", "setting": "[16]", "result": "no effect"}, {"measurement": "complexity of the arterial network", "setting": "[17]; zebrafish embryos", "result": "profound reduction"}, {"measurement": "vessel branch formation / sprouting of intersomitic vessels", "setting": "[17]; zebrafish embryos 48 hours after fertilization, DAL 5 μM", "result": "failed to occur; also recorded: failed to form vessel branches"}]}
